Results reported in PMC7050772 (Cellular physiology and biochemistry : international …, 2020).
Where two headings read alike, the source gives them in different places.

Legend:
[1] = target: T1, cytochrome P450 1A1 (CYP1A1) (Homo sapiens, UniProt P04798); assay: P450-Glo Luc-CEE luminescence assay with recombinant CYP1A1 microsomes; type: biochemical
T1 sequence (P04798 1-512): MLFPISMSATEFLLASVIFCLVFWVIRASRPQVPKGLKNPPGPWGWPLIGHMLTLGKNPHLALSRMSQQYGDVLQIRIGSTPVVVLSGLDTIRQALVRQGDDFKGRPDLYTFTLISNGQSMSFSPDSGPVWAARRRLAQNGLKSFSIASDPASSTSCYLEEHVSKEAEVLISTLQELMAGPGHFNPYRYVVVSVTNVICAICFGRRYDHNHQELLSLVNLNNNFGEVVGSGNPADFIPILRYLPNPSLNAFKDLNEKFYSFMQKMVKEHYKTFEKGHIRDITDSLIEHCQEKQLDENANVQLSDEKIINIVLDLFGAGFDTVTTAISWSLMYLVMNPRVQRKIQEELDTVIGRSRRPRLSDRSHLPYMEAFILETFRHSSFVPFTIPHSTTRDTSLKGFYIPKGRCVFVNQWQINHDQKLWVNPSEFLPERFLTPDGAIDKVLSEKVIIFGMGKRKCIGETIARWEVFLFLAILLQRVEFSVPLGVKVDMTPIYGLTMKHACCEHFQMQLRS

[2] = target: T1, cytochrome P450 1A1 (CYP1A1); assay: as above; type: biochemical; remark: listed apart in the source

Structure (SMILES)	IC50 [1]	IC50 [2]
NCCc1c[nH]c2ccc(O)cc12 [5-HT, Serotonin]	1.62 µM	
NCCc1c[nH]c2ccccc12 [TRYPT, Tryptamine]		1.4 µM
O=c1cc(-c2ccccc2)oc2c1ccc1ccccc12 [α-NF, α-naphthoflavone, reference compound]		0.76 µM
